pIC50: −log10 of the molar value. Blank lines part the entries; values can stand above or below the compound they belong to.
Experiments:
[1] = biological target: T1, Epidermal growth factor receptor (Homo sapiens, UniProt P00533)
Description: Concentration needed to inhibit the phosphorylation of a 14-residue fragment of phospholipase C-gamma1 by Epidermal growth factor receptor (prepared from human A431 carcinoma cell vesicles by immunoaffinity chromatography)

[2] = biological target: Insulin receptor (Homo sapiens) (UniProt P06213); assay: Inhibition against Insulin receptor kinase at 50 uM
[3] = biological target: Protein kinase C (PKC) (Homo sapiens) (UniProt O94806+P41743+P17252+P05129+Q05655+P05771+Q05513+Q02156+P24723+Q15139+Q04759); assay: Inhibition of Protein kinase C at 50 uM; type: protein assay
[4] = biological target: T1, Epidermal growth factor receptor; assay: Inhibition of Epidermal growth factor receptor autophosphorylation in A431 cells
[5] = biological target: Proto-oncogene tyrosine-protein kinase Src (Homo sapiens) (UniProt P12931); assay: Inhibition of c-Src tyrosine kinase at 50 uM
Proto-oncogene tyrosine-protein kinase Src (Homo sapiens), sequence (P12931 2-536 limits assumed): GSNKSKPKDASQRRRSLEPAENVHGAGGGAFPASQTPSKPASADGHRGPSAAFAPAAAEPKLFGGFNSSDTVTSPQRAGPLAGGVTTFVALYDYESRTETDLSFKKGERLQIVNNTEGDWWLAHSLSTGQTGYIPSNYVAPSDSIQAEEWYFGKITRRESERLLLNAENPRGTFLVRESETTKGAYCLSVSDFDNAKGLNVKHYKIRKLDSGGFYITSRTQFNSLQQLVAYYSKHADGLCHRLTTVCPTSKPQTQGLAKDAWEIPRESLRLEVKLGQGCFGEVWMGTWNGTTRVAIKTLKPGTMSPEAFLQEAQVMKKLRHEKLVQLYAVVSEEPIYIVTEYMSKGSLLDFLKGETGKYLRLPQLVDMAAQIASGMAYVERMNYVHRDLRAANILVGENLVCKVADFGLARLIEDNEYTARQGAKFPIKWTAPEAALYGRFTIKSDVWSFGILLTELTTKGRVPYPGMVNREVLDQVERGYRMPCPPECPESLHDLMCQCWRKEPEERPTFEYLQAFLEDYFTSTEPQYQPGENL

[6] = biological target: Fibroblast growth factor receptor (Homo sapiens) (UniProt P22607+P11362+P22455+P21802); assay: Inhibition of Fibroblast growth factor receptor at 50 uM; type: protein assay
[7] = Inhibition of Platelet-derived growth factor receptor at 50 uM
[8] = biological target: Proto-oncogene tyrosine-protein kinase Src (Homo sapiens) (UniProt P12931); assay: Inhibition against c-Src tyrosine kinase at 1.25 uM

Insulin receptor (Homo sapiens), sequence (P06213 28-758 limits assumed): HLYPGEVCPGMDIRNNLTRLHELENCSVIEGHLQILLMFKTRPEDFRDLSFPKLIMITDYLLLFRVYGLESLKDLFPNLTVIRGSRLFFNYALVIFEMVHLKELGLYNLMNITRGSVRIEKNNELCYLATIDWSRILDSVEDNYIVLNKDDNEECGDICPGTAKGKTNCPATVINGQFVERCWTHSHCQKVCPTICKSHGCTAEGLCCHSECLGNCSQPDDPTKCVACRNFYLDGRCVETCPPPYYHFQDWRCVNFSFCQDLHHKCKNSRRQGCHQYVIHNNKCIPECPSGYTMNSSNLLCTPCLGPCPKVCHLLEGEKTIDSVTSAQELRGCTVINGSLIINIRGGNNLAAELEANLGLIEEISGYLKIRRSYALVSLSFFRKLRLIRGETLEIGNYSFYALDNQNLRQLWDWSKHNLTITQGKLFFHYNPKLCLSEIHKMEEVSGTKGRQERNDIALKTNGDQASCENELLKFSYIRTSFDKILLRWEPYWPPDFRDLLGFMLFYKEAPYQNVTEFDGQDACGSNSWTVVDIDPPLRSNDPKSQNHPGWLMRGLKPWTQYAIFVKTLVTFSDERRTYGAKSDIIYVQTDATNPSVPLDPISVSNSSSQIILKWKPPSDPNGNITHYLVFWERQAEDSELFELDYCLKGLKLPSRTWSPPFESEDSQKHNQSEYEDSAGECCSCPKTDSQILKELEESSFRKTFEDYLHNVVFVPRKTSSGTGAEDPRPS
Insulin receptor (Homo sapiens), sequence (P06213 763-1382 limits assumed): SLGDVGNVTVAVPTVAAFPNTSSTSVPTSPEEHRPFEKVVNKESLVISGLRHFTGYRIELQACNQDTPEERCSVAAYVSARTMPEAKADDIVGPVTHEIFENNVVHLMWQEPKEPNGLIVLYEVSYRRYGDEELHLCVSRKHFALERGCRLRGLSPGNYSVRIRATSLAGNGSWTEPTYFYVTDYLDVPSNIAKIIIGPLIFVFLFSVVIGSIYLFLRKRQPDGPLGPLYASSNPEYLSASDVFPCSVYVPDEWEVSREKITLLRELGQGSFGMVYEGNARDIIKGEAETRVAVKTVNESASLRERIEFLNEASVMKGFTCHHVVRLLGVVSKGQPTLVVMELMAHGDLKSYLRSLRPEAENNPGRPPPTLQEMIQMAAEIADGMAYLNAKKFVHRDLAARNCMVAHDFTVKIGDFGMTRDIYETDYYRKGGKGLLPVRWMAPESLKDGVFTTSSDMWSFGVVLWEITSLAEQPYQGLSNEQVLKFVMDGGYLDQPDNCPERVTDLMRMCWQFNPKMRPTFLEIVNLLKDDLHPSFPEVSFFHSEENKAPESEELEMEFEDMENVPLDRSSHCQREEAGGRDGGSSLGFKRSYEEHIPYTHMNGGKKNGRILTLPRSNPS
T1 sequence (P00533 whole entry): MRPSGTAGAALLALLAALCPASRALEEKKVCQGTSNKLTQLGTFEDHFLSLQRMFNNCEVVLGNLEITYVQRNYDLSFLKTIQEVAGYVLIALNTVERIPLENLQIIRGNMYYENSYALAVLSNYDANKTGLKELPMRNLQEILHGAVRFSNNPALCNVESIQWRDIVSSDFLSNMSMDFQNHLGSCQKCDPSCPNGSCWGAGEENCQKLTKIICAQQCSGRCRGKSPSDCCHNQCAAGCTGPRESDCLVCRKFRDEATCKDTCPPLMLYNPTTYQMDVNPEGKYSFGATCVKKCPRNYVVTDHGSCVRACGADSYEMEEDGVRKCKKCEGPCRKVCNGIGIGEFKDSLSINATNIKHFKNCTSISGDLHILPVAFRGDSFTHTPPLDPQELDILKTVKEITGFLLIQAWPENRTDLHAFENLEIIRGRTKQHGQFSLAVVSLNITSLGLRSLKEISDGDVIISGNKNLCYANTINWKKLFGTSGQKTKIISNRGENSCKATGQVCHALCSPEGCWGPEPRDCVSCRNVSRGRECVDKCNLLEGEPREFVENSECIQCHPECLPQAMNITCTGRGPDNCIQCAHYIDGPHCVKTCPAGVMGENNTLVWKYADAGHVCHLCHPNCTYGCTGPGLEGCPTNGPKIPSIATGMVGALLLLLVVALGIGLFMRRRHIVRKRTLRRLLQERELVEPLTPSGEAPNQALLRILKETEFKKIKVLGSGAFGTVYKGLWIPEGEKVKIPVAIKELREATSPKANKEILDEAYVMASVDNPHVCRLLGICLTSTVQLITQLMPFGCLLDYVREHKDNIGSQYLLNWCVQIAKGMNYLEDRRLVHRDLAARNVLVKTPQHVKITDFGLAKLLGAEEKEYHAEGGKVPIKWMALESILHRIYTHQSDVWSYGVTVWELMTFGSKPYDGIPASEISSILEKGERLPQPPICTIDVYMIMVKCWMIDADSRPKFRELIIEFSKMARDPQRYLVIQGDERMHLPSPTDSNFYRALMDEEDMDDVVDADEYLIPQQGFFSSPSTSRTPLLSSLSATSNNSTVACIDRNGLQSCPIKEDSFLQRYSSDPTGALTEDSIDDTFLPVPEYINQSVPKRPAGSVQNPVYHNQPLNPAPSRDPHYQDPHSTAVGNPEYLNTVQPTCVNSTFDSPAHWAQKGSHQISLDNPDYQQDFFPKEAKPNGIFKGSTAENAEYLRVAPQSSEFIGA

- pIC50 [1]: < 4.00
SMILES: C[C@@H](Nc1[nH]cnc2c3ccccc3nc1-2)c1ccccc1

- pIC50 [1]: < 5.00
SMILES: Cc1nc(Nc2cccc(Br)c2)c2c(n1)[nH]c1ccccc12

- pIC50 [1]: 6.35
SMILES: COc1cc2sc3c(Nc4cccc(Br)c4)ncnc3c2cc1OC

- inhibition [2]: 0%
- inhibition [3]: 0%
SMILES: Nc1ccc2sc3c(Nc4cccc(Br)c4)ncnc3c2c1

- pIC50 [4]: 7.48
- pIC50 [1]: 8.96
SMILES: CNc1ccc2sc3c(Nc4cccc(Br)c4)ncnc3c2c1

- pIC50 [1]: < 6.00
SMILES: Clc1cccc(Nc2ncnc3c2sc2ncccc23)c1

- pIC50 [1]: < 4.00
SMILES: c1ccc2c(c1)[nH]c1c(NC3CCCCC3)ncnc12

- pIC50 [1]: 7.96
SMILES: Cc1cccc(Nc2ncnc3c2sc2ccc([N+](=O)[O-])cc23)c1

- inhibition [2]: 0%
- inhibition [5]: 0%
- inhibition [6]: 11%
- inhibition [7]: 10%
SMILES: c1ccc(CNc2ncnc3c2sc2ccccc23)cc1

- pIC50 [1]: 9.00
SMILES: Cc1cccc(Nc2cc(NCCO)ncn2)c1

- inhibition [2]: 0%
- inhibition [5]: 22%
- inhibition [3]: 20%
- inhibition [6]: 19%
- inhibition [7]: 21%
SMILES: COc1ccc2c(c1)sc1c(Nc3cccc(Br)c3)ncnc12

- pIC50 [1]: 8.57
SMILES: Nc1cccc2c1sc1c(Nc3cccc(Br)c3)ncnc12

SMILES: Brc1cccc(Nc2ncnc3sccc23)c1
- pIC50 [1]: 7.46

SMILES: Brc1cccc(Nc2ncnc3cc4[nH]ccc4cc23)c1
- pIC50 [1]: 9.41

- inhibition [2]: 13%
- inhibition [5]: 0%
- inhibition [3]: 7%
- inhibition [6]: 20%
- inhibition [7]: 0%
- pIC50 [1]: 6.27
SMILES: C[C@H](Nc1ncnc2c1sc1ccccc12)c1ccccc1

- pIC50 [1]: 7.32
SMILES: O=[N+]([O-])c1ccc2c(c1)sc1c(Nc3cccc(Br)c3)ncnc12

- pIC50 [4]: 6.31
- pIC50 [1]: 6.83
SMILES: Nc1nc(Nc2cccc(Br)c2)c2c(n1)[nH]c1ccccc12

- pIC50 [1]: 9.33
SMILES: Nc1ccc2c(c1)sc1c(Nc3cccc(Br)c3)ncnc12

- pIC50 [1]: 7.24
SMILES: O=[N+]([O-])c1ccc2sc3c(Nc4ccccc4)ncnc3c2c1

- inhibition [2]: 14%
- inhibition [5]: 47%
- inhibition [3]: 44%
- inhibition [6]: 24%
- pIC50 [4]: 7.01
- inhibition [7]: 17%
- pIC50 [1]: 8.68
SMILES: Cc1cccc(Nc2ncnc3c2sc2ccc(N)cc23)c1

- pIC50 [4]: 7.07
- pIC50 [1]: 8.10
SMILES: CCNc1cc2sc3c(Nc4cccc(Br)c4)ncnc3c2cc1F

- pIC50 [1]: < 5.00
SMILES: CN(C)CCNc1[nH]cnc2nc3ccccc3c1-2

- pIC50 [1]: < 4.00
SMILES: CN(C)CCNc1[nH]cnc2c3ccccc3nc1-2

- pIC50 [1]: 6.34
SMILES: O=[N+]([O-])c1ccc2sc3c(Nc4cccc(C(F)(F)F)c4)ncnc3c2c1

- pIC50 [1]: 6.80
SMILES: O=[N+]([O-])c1cccc2c1sc1c(Nc3cccc(Br)c3)ncnc12

- pIC50 [4]: 6.11
- pIC50 [1]: 6.13
SMILES: Cn1c2ccccc2c2c(Nc3cccc(Br)c3)ncnc21

- pIC50 [1]: 7.90
SMILES: COc1cccc2c1sc1c(Nc3cccc(Br)c3)ncnc12

- pIC50 [1]: 7.70
SMILES: COc1cccc2sc3c(Nc4cccc(Br)c4)ncnc3c12

- inhibition [2]: 0%
- inhibition [8]: 8%
- inhibition [6]: 30%
- pIC50 [4]: 7.89
- inhibition [7]: 2%
- pIC50 [1]: 8.92
SMILES: COc1ccc2[nH]c3ncnc(Nc4cccc(Br)c4)c3c2c1

- pIC50 [4]: 7.38
- pIC50 [1]: 9.00
SMILES: Nc1cc2sc3c(Nc4cccc(Br)c4)ncnc3c2cc1F

- pIC50 [1]: 7.70
SMILES: CN(C)c1ccc2sc3c(Nc4cccc(Br)c4)ncnc3c2c1

- inhibition [2]: 0%
- inhibition [5]: 0%
- inhibition [3]: 18%
- inhibition [6]: 21%
- inhibition [7]: 0%
SMILES: Brc1cccc(Nc2ncnc3c2sc2ccccc23)c1

- inhibition [2]: 0%
- inhibition [5]: 13%
- inhibition [3]: 51%
- inhibition [6]: 17%
- inhibition [7]: 12%
- pIC50 [1]: 7.33
SMILES: Nc1ccc2sc3c(Nc4cccc(C(F)(F)F)c4)ncnc3c2c1
